Converted amounts (≈) assume the structure as drawn.
Columns and labels:
Type in all cases: functional
[1] = system: Mycobacterium tuberculosis; experiment: Antimycobacterial activity against isoniazid, rifampicin-resistant Mycobacterium tuberculosis isolate J-1-19 by agar proportion method
[2] = system: Mycobacterium tuberculosis; experiment: Antimycobacterial activity against multidrug-resistant Mycobacterium tuberculosis isolate M-1-32 by agar proportion method
[3] = system: Mycobacterium tuberculosis; experiment: Antimycobacterial activity against isoniazid, rifampicin-resistant Mycobacterium tuberculosis isolate A-2-3 by agar proportion method
[4] = system: Mycobacterium tuberculosis; experiment: Antimycobacterial activity against streptomycin-resistant Mycobacterium tuberculosis isolate A-3-47 by agar proportion method
[5] = system: Mycobacterium tuberculosis; experiment: Antimycobacterial activity against multidrug-resistant Mycobacterium tuberculosis isolate A-2-6 by agar proportion method
[6] = system: Mycobacterium tuberculosis; experiment: Antimycobacterial activity against multidrug-resistant Mycobacterium tuberculosis isolate U-2-15 by agar proportion method
[7] = system: Mycobacterium tuberculosis; experiment: Antimycobacterial activity against multidrug-resistant Mycobacterium tuberculosis isolate U-4-6 by agar proportion method
[8] = system: Mycobacterium tuberculosis; experiment: Antimycobacterial activity against multidrug-resistant Mycobacterium tuberculosis isolate P-4-11 by agar proportion method
[9] = system: Mycobacterium tuberculosis; experiment: Antimycobacterial activity against multidrug-resistant Mycobacterium tuberculosis isolate N-4-11 by agar proportion method
[10] = system: Mycobacterium tuberculosis; experiment: Antimycobacterial activity against multidrug-resistant Mycobacterium tuberculosis isolate K-3-6 by agar proportion method
[11] = system: Mycobacterium tuberculosis; experiment: Antimycobacterial activity against multidrug-resistant Mycobacterium tuberculosis isolate P-1-50 by agar proportion method
[12] = system: Mycobacterium tuberculosis; experiment: Antimycobacterial activity against streptomycin-resistant Mycobacterium tuberculosis isolate A-4-8 by agar proportion method
[13] = system: Mycobacterium tuberculosis; experiment: Antimycobacterial activity against rifampicin-resistant Mycobacterium tuberculosis isolate A-2-4 by agar proportion method
[14] = system: Mycobacterium tuberculosis; experiment: Antimycobacterial activity against isoniazid, streptomycin-resistant Mycobacterium tuberculosis isolate A-4-25 by agar proportion method
[15] = system: Mycobacterium tuberculosis; experiment: Antimycobacterial activity against multidrug-resistant Mycobacterium tuberculosis isolate Z-1-4 by agar proportion method
[16] = system: Mycobacterium tuberculosis; experiment: Antimycobacterial activity against isoniazid-resistant Mycobacterium tuberculosis isolate A-2-1 by agar proportion method
[17] = system: Mycobacterium tuberculosis; experiment: Antimycobacterial activity against multidrug-resistant Mycobacterium tuberculosis isolate N-5-2 by agar proportion method
[18] = system: Mycobacterium tuberculosis; experiment: Antimycobacterial activity against multidrug-resistant Mycobacterium tuberculosis isolate R-1-38 by agar proportion method
[19] = system: Mycobacterium tuberculosis; experiment: Antimycobacterial activity against multidrug-resistant Mycobacterium tuberculosis isolate Q-4-1 by agar proportion method

CC(=O)N[C@@H]1[C@@H](O)[C@H](O)[C@@H](CO)O[C@H]1SC(=S)N(C)C
MIC [1]: 6.25 µg/mL (≈ 19.3 µM) | MIC [2]: 6.25 µg/mL (≈ 19.3 µM) | MIC [3]: 3.12 µg/mL (≈ 9.62 µM) | MIC [4]: 6.25 µg/mL (≈ 19.3 µM) | MIC [5]: 6.25 µg/mL (≈ 19.3 µM) | MIC [6]: 3.12 µg/mL (≈ 9.62 µM) | MIC [7]: 6.25 µg/mL (≈ 19.3 µM) | MIC [8]: 6.25 µg/mL (≈ 19.3 µM) | MIC [9]: 6.25 µg/mL (≈ 19.3 µM) | MIC [10]: 6.25 µg/mL (≈ 19.3 µM) | MIC [11]: 6.25 µg/mL (≈ 19.3 µM) | MIC [12]: 6.25 µg/mL (≈ 19.3 µM) | MIC [13]: 6.25 µg/mL (≈ 19.3 µM) | MIC [14]: 6.25 µg/mL (≈ 19.3 µM) | MIC [15]: 6.25 µg/mL (≈ 19.3 µM) | MIC [16]: 6.25 µg/mL (≈ 19.3 µM) | MIC [17]: 1.56 µg/mL (≈ 4.81 µM) | MIC [18]: 6.25 µg/mL (≈ 19.3 µM) | MIC [19]: 6.25 µg/mL (≈ 19.3 µM)
